In article PMC7274078, “Brain Endothelial Cells Regulate Glucagon-Like Peptide 1 Entry Into the Brain via a Receptor-Mediated Process” (Frontiers in Physiology, 2020):

Test system: Rat brain microvascular endothelial cells (RBMECs)
Experiment: Endothelial cell uptake of GLP-1-FAM
Format: cell-based
Experimental: Rat brain microvascular endothelial cells (RBMECs; Cell Applications, San Diego, CA, United States) were cultured on a cover slip in rat brain endothelial cell growth medium. After reaching confluency, cells were pre-treated with vehicle (PSS buffer), exendin 9-39 (10 nM) or H89 (Sigma-Aldrich, St. Louis, MO, United States) (10 μM) for 30 min or forskolin (Sigma-Aldrich, St. Louis, MO, United States) (10 μM) for 5 min. Cells were then incubated with GLP-1-FAM at either 10, 100 or 1,000 pM for 3 min at 37°C. DAPI was used to stain the nucleus. After fixation and washing three times with cold TBST (5 min each time), cell images were captured using confocal microscope and fluorescence intensity measured using ImageJ software^1. FAM signal from surface binding of FAM was examined by incubating cells with GLP-1-FAM at 4 or 37°C for 3 min, or free FAM (10, 100, and 1,000 pM) at 37°C for 3 min.
FIGURE 5 GLP-1 uptake by RBMECs is GLP-1 receptor and PKA dependent. RBMECs were pretreated with vehicle (PSS buffer, A,E,I), Exendin 9-39 (10 nM, B,F,J) or H89 (10 μM, C,G,K) for 30 min. Cells were then incubated with GLP-1-FAM at 10, 100 pM or 1 nM for 3 min. DAPI was used to stain the nucleus. Images were captured using confocal microscope. Fluorescence density was analyzed using ImageJ. (D,H,L) Quantitative analysis (n = 3, *p < 0.01, vs. vehicle, Student’s t test). GLP-1R – GLP-1 receptor.
FIGURE 6 cAMP agonist increases GLP-1 uptake by RBMECs. (A) RBMECs were incubated with GLP-1-FAM at 10 pM for 3 min with or without 10 μM forskolin. DAPI was used to stain the nucleus. Images was captured using confocal microscope. Fluorescence density was analyzed using ImageJ. (B) quantitative analysis of the images (n = 6, *p < 0.05, vs. vehicle, Student’s t test).

Row | SMILES | effect on RBMEC uptake of GLP-1-FAM (pre-treatment 30 min with exendin 9-39 10 nM or H89 10 μM, GLP-1-FAM 10, 100 or 1,000 pM for 3 min at 37°C, n = 3, p < 0.01 vs vehicle) | effect on RBMEC uptake of GLP-1-FAM (forskolin 10 μM, 5 min, GLP-1-FAM 10 pM for 3 min, n = 6, p < 0.05 vs vehicle)
1 | O=S(=O)(NCCNC/C=C/c1ccc(Br)cc1)c1cccc2cnccc12 [H89] | blunted | 
2 | C=C[C@@]1(C)CC(=O)[C@]2(O)[C@@]3(C)[C@@H](O)CCC(C)(C)[C@@H]3[C@H](O)[C@H](OC(C)=O)[C@@]2(C)O1 [forskolin] |  | significantly enhanced
